According to publication PMC11396751, “Design, Synthesis, and Anticancer Activity of Novel Enmein-Type Diterpenoid Derivatives Targeting the PI3K/Akt/mTOR Signaling Pathway” (Molecules, 2024):

What was measured:
Type in all cases: cell-based, human
HepG2 cells = assay: MTT anti-proliferative assay, HepG2
Method: A series of novel enmein-type diterpenoid derivatives, 5a–m, were synthesized by introducing a side chain containing a carbamate moiety at the C-6 position of compound 4. The anticancer activities of 5a–m were tested against three human cancer cell lines and one human normal cell line by MTT assay.
Human non-small cell lung cancer cell lines (A549), human liver cancer cell lines (HepG2), human breast cancer cell lines (MCF-7), and human normal cell lines (L-02) were purchased from the cell bank of the Chinese Academy of Sciences. All cells were placed in RPMI-1640 medium (added 10% fetal bovine serum, […]) and cultured in an aseptic environment with 5% CO2 at 37 °C.
All derivatives were evaluated for their anti-proliferative activities against three cancer cell lines and one normal cell line by MTT assay. The cells in the logarithmic growth phase were inoculated into 96-well plates (3 × 10^3 cells/well) and incubated for 48 h in a sterile environment with 5% CO2 at 37 °C to make them attach via cell adhesion; then, the cells were co-incubated with target compounds for 48 h. After that, MTT solution (10 µL/well) was added to the cell culture medium to continue incubation for 4 h, following which the medium was replaced with DMSO (150 µL/well). The absorbance values at 490 nm were determined using an enzyme meter (Safire 2, Tecan, Männedorf, Switzerland) and further converted to half-inhibitory concentration values of these compounds.

A549 cells [1] = assay: Cell cycle analysis, PI/RNase, flow cytometry; conditions: 48 h
Method: Cell cycle regulation is an essential process in maintaining normal bodily functions and is often disturbed in cancer cells. The inducement of cell cycle arrest is considered a key avenue for targeted cancer therapy. As a novel enmein-type diterpenoid derivative with remarkable anti-proliferative effects against A549 cells, 7h may have the ability to induce cell cycle arrest. Therefore, A549 cells were treated with 7h, stained with PI/RNase solution, and analyzed for their cell cycle distribution by flow cytometry.
A549 cells were inoculated into 24-well plates and attached via cell adhesion. Then, gradient concentrations (0, 2, 4, and 8 µM) of 7h were added and the cells were co-incubated for 48 h. The cells were cleaned with ice-cold phosphate buffer solution (PBS), digested with trypsin, collected, and prepared as a cell suspension. The cell suspension was treated with PI/RNase staining solution, the data were gathered using a flow cytometer (FACS Calibur, BD, Milpitas, CA, USA), and the cell cycle distribution was analyzed using Flow Jo software. Three attempts were performed for each treatment to eliminate experimental bias.

A549 cells [2] = assay: Apoptosis rate, Annexin V-FITC/PI, flow cytometry; conditions: 48 h
Method: To further confirm the capacity of 7h to induce apoptosis in cancer cells, A549 cells were treated with 7h, detected using Annexin V-FITC/PI staining, and the apoptosis rate was detected by flow cytometry.
A549 cells were inoculated into 6-well plates and attached via cell adhesion. Then, gradient concentrations (0, 2, 4, and 8 µM) of 7h was added and co-incubated for 48 h. The cells were gathered and prepared as cell suspensions according to the method described in Section 4.2.3. The cell suspension was treated with Annexin V-FITC/PI staining solution, and the data were gathered using a flow cytometer (FACS Calibur, BD, Milpitas, CA, USA) and analyzed using Flow Jo software. Three attempts were performed for each treatment to eliminate experimental bias.

[3] = A549, highest concentration (8 µM per Figure 4b)

C=C1C(=O)C23C(=O)OC45CCC(C)(C)C6C(OC(=O)CCC(=O)N7CCC(c8noc9cc(F)ccc89)CC7)OCC64C2CCC1C3O5 (single isomer, unassigned; ent-6) [Compound 7h, ent-6β,14α-Dihydroxy-(1,7–1,14)-epoxy-7,15-dioxo-6,20-hemiketal-6,7-seco-16-kaurene-6β-yl 4-(4-(6-fluorobenzo[d]isoxazol-3-yl)piperidin-1-yl)-4-oxobutanoate]
anticancer activity in words, HepG2 (HepG2 cells; HepG2 cells): low micro-molar-level anticancer activities
IC50 (HepG2 cells; Homo sapiens, HepG2, MTT, 48 h, means ± SD of three experiments): 6.1 ± 1.24 µM
cells in G0/G1 phase (A549 cells [1]; A549, 2 µM): 62.99%
cells in G2/M phase (A549 cells [1]; A549, 2 µM): 16.21%
cells in S phase (A549 cells [1]; A549, 2 µM): 20.80%
cells in G0/G1 phase (A549 cells [1]; A549, 4 µM): 71.04%
cells in G2/M phase (A549 cells [1]; A549, 4 µM): 17.63%
cells in S phase (A549 cells [1]; A549, 4 µM): 11.33%
cells in G0/G1 phase (A549 cells [1]; A549, 8 µM): 89.87%
cells in G2/M phase (A549 cells [1]; A549, 8 µM): 3.93%
cells in S phase (A549 cells [1]; A549, 8 µM): 6.10%
late apoptosis (A549 cells [2]; [3]): 41.8%
percentage of total apoptosis (A549 cells [2]; [3]): 58.00%
percentage of total apoptosis (A549 cells [2]; A549, lowest concentration (2 µM per Figure 4b)): 5.38%
